Laboratory results from US7531527B2, “2-Propylidene-19-nor-vitamin D compounds” (Wisconsin Alumni Research Foundation, priority 2003, dated 2009).

How the values were obtained:
[1] = target: T1, recombinantly produced rat receptor (1α,25-hydroxyvitamin D3 rat receptor) (Rattus norvegicus, UniProt P13053); experiment: Competitive VDR binding; conditions: FIGS. 1 and 2
T1 construct: made in house
T1 sequence (P13053 1-423): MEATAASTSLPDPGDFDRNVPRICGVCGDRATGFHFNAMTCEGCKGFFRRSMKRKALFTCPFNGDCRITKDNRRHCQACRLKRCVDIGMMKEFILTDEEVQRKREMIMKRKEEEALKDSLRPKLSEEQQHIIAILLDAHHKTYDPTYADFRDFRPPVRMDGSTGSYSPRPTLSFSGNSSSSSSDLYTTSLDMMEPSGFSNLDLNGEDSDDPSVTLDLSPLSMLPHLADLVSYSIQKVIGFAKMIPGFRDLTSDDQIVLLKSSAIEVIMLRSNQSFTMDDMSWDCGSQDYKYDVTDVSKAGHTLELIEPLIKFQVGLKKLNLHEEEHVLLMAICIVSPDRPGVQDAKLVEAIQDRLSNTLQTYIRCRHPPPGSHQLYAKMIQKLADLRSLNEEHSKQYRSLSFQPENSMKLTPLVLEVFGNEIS
Protocol: Competitive binding of the analogs to the porcine intestinal receptor was carried out by the method described by Dame et al (Biochemistry 25, 4523-4534, 1986), except the recombinantly produced rat receptor was used as the receptor (see Vanhooke et al., Biochemistry, in press, 2004).

[2] = system: human leukemia cells (HL-60 cells); experiment: HL-60 cell differentiation (NBT reduction); type: cell-based; conditions: for potency in promoting the differentiation of leukemia cells: HL-60 cells, compared with 1α,25-dihydroxyvitamin D3 and 2MD, FIG. 3; for percent of HL-60 cells induced to differentiate: NBT assay, concentration 1×10^−7M
Protocol: The differentiation of HL-60 promyelocytic into monocytes was determined as described by Ostrem et al (J. Biol. Chem. 262, 14164-14171, 1987).
Differentiation activity was assessed by a standard differentiation assay, abbreviated as NBT reduction (nitroblue tetrazolium reduction). The assay was conducted according to known procedures, as given, for example, by DeLuca et al U.S. Pat. No. 4,717,721 and Ostrem et al, J. Biol. Chem. 262, 14164, 1987. For the assay, the differentiation activity of the test compounds is expressed in terms of the percent of HL-60 cells having differentiated to normal cells in response to a given concentration of test compound.

[3] = system: 24-hydroxylase (24OHase) gene promoter; experiment: Transcription activation, 24-hydroxylase promoter luciferase reporter in ROS 17/2.8 (bone) cells; type: cell-based; conditions: ROS 17/2.8 cells, 16 hours after dosing, FIG. 4
Protocol: Transcriptional activity was measured in ROS 17/2.8 (bone) cells that were stably transfected with a 24-hydroxylase (24OHase) gene promoter upstream of a luciferase reporter gene (Arbour et al., 1998). Cells were given a range of doses. Sixteen hours after dosing the cells were harvested and luciferase activities were measured using a luminometer.
“RLU” in FIG. 4 refers to relative luciferase units.

[4] = system: Male, weanling Sprague-Dawley rats; experiment: Intestinal calcium transport (everted gut sac method); type: in vivo, rat; conditions: four consecutive ip doses, FIG. 5
Protocol: (§1) Male, weanling Sprague-Dawley rats were placed on Diet 11 (0.47% Ca) diet+AEK for one week followed by Diet 11 (0.02% Ca)+AEK for 3 weeks. The rats were then switched to a diet containing 0.47% Ca for one week followed by two weeks on a diet containing 0.02% Ca. Dose administration began during the last week on 0.02% calcium diet. Four consecutive ip doses were given approximately 24 hours apart. Twenty-four hours after the last dose, blood was collected from the severed neck and the concentration of serum calcium determined as a measure of bone calcium mobilization. The first 10 cm of the intestine was also collected for intestinal calcium transport analysis using the everted gut sac method.

[5] = system: Male, weanling Sprague-Dawley rats; experiment: Bone calcium mobilization (serum calcium); type: in vivo, rat; conditions: four consecutive ip doses, FIG. 6
Protocol: as §1

Q: How did the “activity in binding to the 1α,25-hydroxyvitamin D3 rat receptor” value [1] turn out when “2-(3′-hydroxypropylidene)-19-nor-1α,25-(OH)2D3 [1AGR]” was run?
A: very active

Q: And the “potency in promoting the differentiation of leukemia cells” value [2]?
A: as potent as 1α,25-dihydroxyvitamin D3 and 2MD

Q: What about the “percent of HL-60 cells induced to differentiate” value [2] of the same substance?
A: the same degree of differentiation

Q: What about the “transcriptional activity in bone cells” value [3] of the same substance?
A: significant transcriptional activity

Q: What about the “intestinal calcium transport activity” value [4] of the same substance?
A: relatively high intestinal calcium transport activity

Q: And the “intestinal calcium transport activity compared with 2MD” value [4]?
A: more active than 2MD

Q: And the “ability to mobilize calcium from bone” value [5]?
A: significant ability to mobilize calcium from bone

Q: What about the “bone calcium mobilization compared with 2MD” value [5] of the same substance?
A: less active in this regard than 2MD

Q: For “2-(3′-hydroxypropylidene)-19-nor-(20S)-1α,25-(OH)2D3 [1AGS]”, which “activity in binding to the 1α,25-hydroxyvitamin D3 rat receptor” value [1] is on record?
A: very active

Q: And the “potency in promoting the differentiation of leukemia cells” value [2]?
A: as potent as 1α,25-dihydroxyvitamin D3 and 2MD

Q: What about the “percent of HL-60 cells induced to differentiate” value [2] of the same substance?
A: the same degree of differentiation

Q: And the “transcriptional activity in bone cells” value [3]?
A: significant transcriptional activity

Q: What about the “intestinal calcium transport activity” value [4] of the same substance?
A: relatively high intestinal calcium transport activity

Q: And the “intestinal calcium transport activity compared with 2MD” value [4]?
A: more active than 2MD

Q: And the “ability to mobilize calcium from bone” value [5]?
A: significant ability to mobilize calcium from bone

Q: What about the “bone calcium mobilization compared with 2MD” value [5] of the same substance?
A: less active in this regard than 2MD

Q: What does the source list for “2-[(3′-methoxymethoxy)propylidene]-19-nor-1α,25-dihydroxyvitamin D3 [F-Wit]”?
A: transcriptional activity in bone cells [3]: significant transcriptional activity; intestinal calcium transport activity [4]: relatively high intestinal calcium transport activity; intestinal calcium transport activity compared with 2MD [4]: more active than 2MD; ability to mobilize calcium from bone [5]: significant ability to mobilize calcium from bone; bone calcium mobilization compared with 2MD [5]: less active in this regard than 2MD
